In US11034650B2, “Compounds useful for treating a Mannheimia haemolytica or Histophilus somni infection” (Intervet Inc., priority 2016, dated 2021):
Values after ≈ are worked out from the molar mass of the structure shown.

Assays:
Assay type in all cases: cell-based
[1] = system: Mannheimia haemolytica MH 6357 (M7/2, reference strain, cattle infection strain); test: MIC, broth-microdilution (CLSI VET01-A4), strain MH 6357; settings: Mannheimia haemolytica strain MH 6357, broth-microdilution; unit assumed
Summary of the method: (§1)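 Growth inhibition is scored visually on a doubling dilution series. The reported MIC corresponds to the lowest concentration free of turbidity, with results assessed under CLSI VET01-S3.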

[2] = system: Mannheimia haemolytica MH 6374 (ATCC 33396, reference strain); test: MIC, broth-microdilution (CLSI VET01-A4), strain MH 6374; settings: Mannheimia haemolytica strain MH 6374, broth-microdilution; unit assumed
Summary of the method: as §1

[3] = system: Mannheimia haemolytica MH 10720 (154, BRD field isolate); test: MIC, broth-microdilution (CLSI VET01-A4), strain MH 10720; settings: Mannheimia haemolytica strain MH 10720, broth-microdilution; unit assumed
Summary of the method: as §1

[4] = system: Mannheimia haemolytica MH 12587 (1071, BRD field isolate, macrolide-resistance: erm+, E+); test: MIC, broth-microdilution (CLSI VET01-A4), strain MH 12587; settings: Mannheimia haemolytica strain MH 12587, broth-microdilution; unit assumed
Summary of the method: as §1

[5] = system: Mannheimia haemolytica MH 13065 (XB0446-6003.9, BRD field isolate); test: MIC, broth-microdilution (CLSI VET01-A4), strain MH 13065; settings: Mannheimia haemolytica strain MH 13065, broth-microdilution; unit assumed
Summary of the method: as §1

[6] = system: Mannheimia haemolytica MH 13093 (XB0472-6014.1, BRD field isolate); test: MIC, broth-microdilution (CLSI VET01-A4), strain MH 13093; settings: Mannheimia haemolytica strain MH 13093, broth-microdilution; unit assumed
Summary of the method: as §1

[7] = system: Pasteurella multocida PM 6267 (P 2225 (L386), reference strain, mouse infection strain); test: MIC, broth-microdilution (CLSI VET01-A4), strain PM 6267; settings: Pasteurella multocida strain PM 6267, broth-microdilution; unit assumed
Summary of the method: as §1

[8] = system: Pasteurella multocida PM 6391 (ATCC 43137, reference strain); test: MIC, broth-microdilution (CLSI VET01-A4), strain PM 6391; settings: Pasteurella multocida strain PM 6391, broth-microdilution; unit assumed
Summary of the method: as §1

[9] = system: Pasteurella multocida PM 10775 (080130003051, BRD field isolate); test: MIC, broth-microdilution (CLSI VET01-A4), strain PM 10775; settings: Pasteurella multocida strain PM 10775, broth-microdilution; unit assumed
Summary of the method: as §1

[10] = system: Pasteurella multocida PM 12080 (IV102277-0093, BRD field isolate); test: MIC, broth-microdilution (CLSI VET01-A4), strain PM 12080; settings: Pasteurella multocida strain PM 12080, broth-microdilution; unit assumed
Summary of the method: as §1

Compound	MIC PM 6267 [7] [µg/mL]	MIC PM 6391 [8] [µg/mL]	MIC PM 10775 [9] [µg/mL]	MIC PM 12080 [10] [µg/mL]	MIC MH 6357 [1] [µg/mL]	MIC MH 6374 [2] [µg/mL]	MIC MH 10720 [3] [µg/mL]	MIC MH 12587 [4] [µg/mL]	MIC MH 13065 [5] [µg/mL]	MIC MH 13093 [6] [µg/mL]
CC(C)([C@H](NC(=O)c1ccc(C#Cc2ccc(CNCc3ccco3)cc2)cc1)C(=O)NO)S(C)(=O)=O [C.270]	≤ 0.1	≤ 0.1	≤ 0.1	≤ 0.1	0.8 (≈ 1.53 µM)	0.2 (≈ 0.382 µM)	≤ 0.1	0.8 (≈ 1.53 µM)	0.2 (≈ 0.382 µM)	0.4 (≈ 0.764 µM)
COCCNCc1ccc(C#Cc2ccc(C(=O)N[C@H](C(=O)NO)C(C)(C)SC)cc2)s1 [Compound 302]	0.8 (≈ 1.68 µM)	0.8 (≈ 1.68 µM)	≤ 0.1	0.4 (≈ 0.841 µM)	0.4 (≈ 0.841 µM)	0.8 (≈ 1.68 µM)	≤ 0.1	1.6 (≈ 3.36 µM)	0.8 (≈ 1.68 µM)	0.8 (≈ 1.68 µM)
COc1ccc(CNCc2ccc(C#Cc3ccc(C(=O)N[C@H](C(=O)NO)C(C)(C)O)cc3)cn2)cc1 [Compound 328]	0.8 (≈ 1.59 µM)	≤ 0.1	≤ 0.1	≤ 0.1	0.8 (≈ 1.59 µM)	0.8 (≈ 1.59 µM)	≤ 0.1	1.6 (≈ 3.18 µM)	0.8 (≈ 1.59 µM)	0.8 (≈ 1.59 µM)
CC(C)(O)[C@H](NC(=O)c1ccc(C#Cc2ccc(CN3CCOCC3)cc2)cc1)C(=O)NO [Compound 222]	≤ 0.1	≤ 0.1	≤ 0.1	0.2 (≈ 0.443 µM)	0.8 (≈ 1.77 µM)	1.6 (≈ 3.54 µM)	0.2 (≈ 0.443 µM)	1.6 (≈ 3.54 µM)	1.6 (≈ 3.54 µM)	1.6 (≈ 3.54 µM)
O=C(N[C@@H](CO)C(=O)NO)c1ccc(C#Cc2ccc([N+](=O)[O-])cc2)cc1 [Compound 375, N-[(1S)-2-(hydroxyamino)-1-(hydroxymethyl)-2-oxo-ethyl]-4-[2-(4-nitrophenyl)ethynyl]benzamide]	0.8 (≈ 2.17 µM)	1.6 (≈ 4.33 µM)	≤ 0.1	3.1 (≈ 8.39 µM)	1.6 (≈ 4.33 µM)	3.1 (≈ 8.39 µM)	0.8 (≈ 2.17 µM)	6.3 (≈ 17.1 µM)	3.1 (≈ 8.39 µM)	6.3 (≈ 17.1 µM)
CC(C)(C(NC(=O)c1ccc(C#Cc2ccc(CNCc3ccccn3)cc2)cc1)C(=O)NO)[N+](=O)[O-] (centres unmarked) [Compound 282]	0.8 (≈ 1.6 µM)	0.4 (≈ 0.798 µM)	0.4 (≈ 0.798 µM)	0.2 (≈ 0.399 µM)	0.8 (≈ 1.6 µM)	0.8 (≈ 1.6 µM)	≤ 0.1	1.6 (≈ 3.19 µM)	0.4 (≈ 0.798 µM)	1.6 (≈ 3.19 µM)
O=C(N[C@@H](CO)C(=O)NO)c1ccc(C#Cc2ccc(CNCc3ccccn3)cc2)cc1 [Compound 158]	0.4 (≈ 0.9 µM)	0.8 (≈ 1.8 µM)	≤ 0.1	0.8 (≈ 1.8 µM)	1.6 (≈ 3.6 µM)	3.1 (≈ 6.97 µM)	0.8 (≈ 1.8 µM)	6.3 (≈ 14.2 µM)	6.3 (≈ 14.2 µM)	6.3 (≈ 14.2 µM)

More lines, main results first:

MIC PM 6267 [7] [µg/mL]	MIC PM 6391 [8] [µg/mL]	MIC PM 10775 [9] [µg/mL]	MIC PM 12080 [10] [µg/mL]	Compound	MIC MH 6357 [1] [µg/mL]	MIC MH 6374 [2] [µg/mL]	MIC MH 10720 [3] [µg/mL]	MIC MH 12587 [4] [µg/mL]	MIC MH 13065 [5] [µg/mL]	MIC MH 13093 [6] [µg/mL]
≤ 0.1	0.2 (≈ 0.445 µM)	≤ 0.1	0.2 (≈ 0.445 µM)	CC(C)[C@H](NC(=O)c1ccc(C#Cc2ccc(CNCC3CCCO3)cc2)cc1)C(=O)NO (some centres unmarked) [Compound 200]	6.3 (≈ 14 µM)	3.1 (≈ 6.9 µM)	0.8 (≈ 1.78 µM)	6.3 (≈ 14 µM)	1.6 (≈ 3.56 µM)	3.1 (≈ 6.9 µM)
0.2 (≈ 0.443 µM)	0.8 (≈ 1.77 µM)	≤ 0.1	0.4 (≈ 0.886 µM)	CC[C@H](C)[C@H](NC(=O)c1ccc(C#Cc2ccc(CN(C)CCOC)cc2)cc1)C(=O)NO [Compound 178]	1.6 (≈ 3.54 µM)	3.1 (≈ 6.86 µM)	0.8 (≈ 1.77 µM)	6.3 (≈ 14 µM)	1.6 (≈ 3.54 µM)	3.1 (≈ 6.86 µM)
≤ 0.1	0.2 (≈ 0.51 µM)	≤ 0.1	0.2 (≈ 0.51 µM)	N#CCNCc1ccc(C#Cc2ccc(C(=O)N[C@@H](CO)C(=O)NO)cc2)cc1 [Compound 216]	1.6 (≈ 4.08 µM)	3.1 (≈ 7.9 µM)	0.8 (≈ 2.04 µM)	3.1 (≈ 7.9 µM)	1.6 (≈ 4.08 µM)	3.1 (≈ 7.9 µM)
≤ 0.1	0.4 (≈ 0.859 µM)	≤ 0.1	0.2 (≈ 0.43 µM)	CC(C)(O)C(NC(=O)c1ccc(C#Cc2ccc(CNCC3CCCO3)cc2)cc1)C(=O)NO (centres unmarked) [Compound 234]	6.3 (≈ 13.5 µM)	3.1 (≈ 6.66 µM)	0.4 (≈ 0.859 µM)	6.3 (≈ 13.5 µM)	3.1 (≈ 6.66 µM)	6.3 (≈ 13.5 µM)
≤ 0.1	0.4 (≈ 0.888 µM)	≤ 0.1	0.2 (≈ 0.444 µM)	C=CCNCc1ccc(C#Cc2ccc(C(=O)NC(C(=O)NO)C(C)(C)[N+](=O)[O-])cc2)cc1 (centres unmarked) [Compound 280]	1.6 (≈ 3.55 µM)	0.8 (≈ 1.78 µM)	≤ 0.1	3.1 (≈ 6.88 µM)	1.6 (≈ 3.55 µM)	1.6 (≈ 3.55 µM)
0.4 (≈ 0.949 µM)	0.8 (≈ 1.9 µM)	≤ 0.1	0.4 (≈ 0.949 µM)	CCCNCc1ccc(C#Cc2ccc(C(=O)N[C@H](C(=O)NO)[C@@H](C)CC)cc2)cc1 [Compound 193]	6.3 (≈ 14.9 µM)	6.3 (≈ 14.9 µM)	0.8 (≈ 1.9 µM)	6.3 (≈ 14.9 µM)	3.1 (≈ 7.35 µM)	3.1 (≈ 7.35 µM)
0.2 (≈ 0.477 µM)	0.4 (≈ 0.953 µM)	≤ 0.1	0.2 (≈ 0.477 µM)	CC(C)[C@H](NC(=O)c1ccc(C#Cc2ccc(CN3CCCC3)cc2)cc1)C(=O)NO [Compound 212]	3.1 (≈ 7.39 µM)	6.3 (≈ 15 µM)	0.8 (≈ 1.91 µM)	12.5 (≈ 29.8 µM)	3.1 (≈ 7.39 µM)	12.5 (≈ 29.8 µM)
